SMILES strings stand for the structures.

The series can be described thus: Pharmacokinetic study of 153 (and metabolite endothal) in SD rats, iv and po; plasma, liver, brain. The format is in vivo. The conditions noted are these: for endothal detectable in brain samples: after single iv 153 at 1.25 mg/kg, 1.25 mg/kg. The protocol:
The blood, liver and brain tissue samples were collected at predetermined times from rats. […] Compound were diluted shortly before use in 4% sodium bicarbonate for sterile injection (this is the standard pediatric solution of NaHCO3 with a pH of about 8.5).
Compound 153 was freshly prepared by diluting the drugs shortly before use in 4% sodium bicarbonate for sterile injection (this is the standard pediatric solution of NaHCO3 with a pH of about 8.5). The final concentrations of 153 solutions were 0.25 mg/mL. The 153 solutions were administered via iv or po route at dose volume of 5 ml/kg according to the latest body weight. Compound 157 was freshly prepared by diluting the drugs shortly before use in 4% sodium bicarbonate for sterile injection (this is the standard pediatric solution of NaHCO3 with a pH of about 8.5). The final concentrations of […] solutions were 0.3 mg/mL. The 157 solutions were administered via iv or po route at dose volume of 5 ml/kg according to the latest body weight.
Twelve (12) female SD rats per group were dosed by iv with 153 or 157. The rats were fasted overnight prior to dosing, with free access to water. Foods were withheld for 2 hours post-dose. Blood, liver and brain tissue samples in two animals each group were collected at each time point, within 10% of the scheduled time for each time point. Two extra animals were used for analytic method development.
Blood (>0.3 mL) were collected via aorta abdominalis in anaesthetic animals into tubes containing heparin at 15 min, 1, 2, 6, 10 and 24 hours after iv administration. Liver and brain tissues were collected immediately after animal death. The liver and brain tissues were excised and rinsed with cold saline to avoid blood residual. Upon collection, each sample was placed on ice and the blood samples were subsequently centrifuged (4° C., 11000 rpm, 5 min) to separate plasma. The obtained plasma, liver and brain tissue samples were stored at −70° C. until LC-MS/MS analysis.
Two (2) female SD rats per group were dosed by po with 153 or 157. The rats were fasted overnight prior to dosing, with free access to water. Foods were withheld for 2 hours post-dose. Blood samples (>0.3 mL) were collected via aorta abdominalis in anaesthetic animals into tubes containing heparin at 30 min, 1, 2, 6, 10 and 24 hours after po administration.
To each sample, 20 μL IS-D (for blank samples, 20 μL acetonitrile:water (1:1) was added) and 300 μl acetonitrile was added. The sample mixture was vortexed for approximately 3 min. After centrifugation at 10000 rpm for 5 min at 4° C., 100 μL of the upper layer was transferred to a new tube and added 200 μL 0.4% formic acid in water (pH 6.0). The mixture was vortexed for approximately 3 min before injected onto the LC/MS/MS system for analysis.
On the day of the assay, the frozen liver and brain samples were thawed unassisted at room temperature. An about 200 mg weighed sample of each thawed tissue was placed into a plastic tube with water (0.6 mL) to facilitate homogenization. Tissue processing was conducted using a homogenizer for approximately 1 min, 200 μl homogenate was transferred into a fresh Eppendorf tube. To each tube, 50 μL IS-D was added and mixed. Then 600 μl acetonitrile was added and the sample mixture was vortexed for approximately 3 min. After centrifugation at 10000 rpm for 5 min at 4° C., 400 μL of the upper layer was transferred to a new tube and evaporate the supernatant to dryness at 35° C. Reconstitute the residue with 200 μL of 0.4% formic acid in water (pH6.0), and vortex for 3 min, submit for LC-MS/MS analysis.
Frozen unknown plasma samples were completely thawed at room temperature and vortexed thoroughly. With a pipette, 50 μL of plasma was transferred into a 2.0 mL Eppendorf tube. 50 μL of 0.1N HCl and 800 μL ethyl acetate were added into each sample. The sample mixture was vortexed for approximately 3 min.

On to `O=C(O)C1C2CCC(O2)C1C(=O)O` (stereo not drawn) [Endothal, 7-oxabicyclo[2.2.1]heptane-2,3-dicarboxylic acid], for which the “endothal detectable in brain samples” value is given as “undetectable”. Besides, the Endothal plasma concentration entry (after iv 153, 10 hr, Rat 2) was “BLQ”. Also, the Endothal plasma concentration entry (after iv 153, 24 hr, Rat 1) is recorded as “BLQ”. Besides, for the setting “after iv 153, 24 hr, Rat 2”, the Endothal plasma concentration result is “BLQ”. Also, for the setting “after po 153, 10 hr, Rat 1”, the Endothal plasma concentration result is given as “BLQ”. Also, the “endothal detectable in brain samples” value (listed as endothal) was “not detectable”.
